The values that follow come from patent publication US6849653B2, “Substituted pyrazolyl benzenesulfamide compounds for the treatment of inflammation” (Pharmacia Corporation, priority 2001, dated 2005).

This assay addresses T1, IKK2 (IKKβ), rhIKK2 homodimer (Homo sapiens, UniProt O14920).
T1 construct: made in house; host or cells: insect cells (baculovirus; SF9)
T1 sequence (O14920 1-756): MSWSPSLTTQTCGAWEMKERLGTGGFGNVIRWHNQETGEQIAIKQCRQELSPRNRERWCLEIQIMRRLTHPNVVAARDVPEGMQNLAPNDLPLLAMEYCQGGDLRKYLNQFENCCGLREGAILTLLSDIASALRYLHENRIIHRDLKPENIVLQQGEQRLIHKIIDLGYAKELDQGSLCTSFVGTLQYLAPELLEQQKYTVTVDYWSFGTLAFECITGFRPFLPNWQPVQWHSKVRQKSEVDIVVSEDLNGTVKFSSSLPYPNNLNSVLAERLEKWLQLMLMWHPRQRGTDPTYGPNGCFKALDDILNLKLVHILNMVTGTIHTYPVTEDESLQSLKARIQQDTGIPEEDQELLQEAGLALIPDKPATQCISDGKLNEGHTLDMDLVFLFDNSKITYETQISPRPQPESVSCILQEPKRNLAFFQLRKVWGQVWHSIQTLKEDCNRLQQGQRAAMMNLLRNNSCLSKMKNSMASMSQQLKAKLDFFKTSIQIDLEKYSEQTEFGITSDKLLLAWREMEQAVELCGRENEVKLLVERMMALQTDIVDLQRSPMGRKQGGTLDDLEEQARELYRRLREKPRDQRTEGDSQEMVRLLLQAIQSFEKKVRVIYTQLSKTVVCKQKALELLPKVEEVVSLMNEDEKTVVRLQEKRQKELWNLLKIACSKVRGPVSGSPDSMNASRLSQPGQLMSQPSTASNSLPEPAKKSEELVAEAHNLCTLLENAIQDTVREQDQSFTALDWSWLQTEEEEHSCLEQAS
The assay is described as follows: IKKβ (IKK2) Resin Enzyme Assay. The conditions noted are these: read-out: IKK2 Resin IC 50. The class given is biochemical. An excerpt:
cDNAs of human IKK1 and IKK2 were amplified by reverse transcriptase-polymerase chain reaction from human placental RNA (Clonetech). hIKK1 was subcloned into pFastBac HTa (Life Technologies) and expressed as N-terminal His6-tagged fusion protein. The hIKK2 cDNA was amplified using a reverse oligonucleotide primer which incorporated the peptide sequence for a FLAG-epitope tag at the C-terminus of the IKK2 coding region (DYKDDDDKD). The hIKK2:FLAG cDNA was subcloned into the baculovirus vector pFastBac. The rhIKK2 ([…]) mutant was constructed in the same vector used for wild type rhIKK2 using a QuikChange™ mutagenesis kit (Stratagene). Viral stocks of each construct were used to infect insect cells grown in 40L suspension culture. […] Cell lysates were stored at −80° C. until purification of the recombinant proteins was undertaken as described below.
Isolation of rhIKK2 Homodimer
A 10 liter culture of baculovirus-expressing IKK2 tagged with FLAG peptide was centrifuged and the cell pellet (MOI=0.1 and I=72 hrs) was re-suspended in buffer A. These cells were microfluidized, and centrifuged at 100,000×g for 45 min. Supernatant was passed over a G-25 column equilibrated with Buffer A. Protein peak was collected and incubated with anti-FLAG affinity resin on a rotator overnight in buffer B. The resin was washed in batch with 10-15 bed volumes of buffer C. Washed resin was poured into a column and rhIKK2 homodimer was eluted using 5 bed volumes of buffer B containing FLAG peptide. 5 mM DTT, 0.1% NP-40 and BSA (concentrated to 0.1% in final amount) was added to the eluted enzyme before concentrating in using an Amicon membrane with a molecular weight cut-off of 30 kDa. Enzyme was aliquoted and stored at −80° C.
IKKβ kinase activity was measured using a biotinylated IκBα peptide (Gly-Leu-Lys-Lys-Glu-Arg-Leu-Leu-Asp-Asp-Arg-His-Asp-Ser32-Gly-Leu-Asp-Ser36-Met-Lys-Asp-Glu-Glu) (American Peptide Co.). […] contained 5 μM biotinylated IκBα peptide, 0.1 μCi/reaction [γ-^33P] ATP (Amersham) (about 1×10^5 cpm), 1 μM ATP (Sigma), 1 mM DTT (Sigma), 2 mM MgCl2 (Sigma), 2 mM MnCl2 (Sigma), 10 mM NaF (Sigma), 25 mM Hepes (Sigma) buffer, pH 7.6 and 20 μl enzyme solution and […] inhibitor in a final volume of 50 μl. After incubation at 25° C. for 30 min, 150 μl resin (Dowex anion-exchange resin AG1X8 200-400 mesh) in 900 mM formate, pH 3.0 was added to each well to stop the reaction. Resin was allowed to settle for one hour and 50 ul of supernatant was removed to a Micolite-2 flat bottom plate (Dynex). 150 μl of scintillation fluid (Microscint 40) (Packard) was added to each well. Incorporation of [γ-^33P] ATP was measured using a Top-Count NXT (Packard).

pIC50: −log10 of the molar value. Structures can show the parent of a compound that is named as a salt. Where two headings read alike, the source gives them in different places.

With `CS(=O)(=O)c1ccc(-n2nc(C(N)=O)c3ccc4ccc(NC(=O)c5cccnc5Cl)cc4c32)cc1` [Example 41, 8-{[(2-chloropyridin-3-yl)carbonyl]amino}-1-[4-(methylsulfonyl)phenyl]-1H-benzo[g]indazole-3-carboxamide], the pIC50 (Table 2, values given as bins) was no less than 6.00.

For `CS(=O)(=O)Nc1ccc2ccc3c(C(N)=O)nn(-c4ccc(F)cc4)c3c2c1` [Example 50, 1-(4-fluorophenyl)-8-[(methylsulfonyl)amino]-1H-benzo[g]indazole-3-carboxamide], the pIC50 (Table 3) was no less than 6.00.

As to `NC(=O)c1nn(-c2ccc3c(c2)OCO3)c2c1ccc1ccc(NC(=O)c3cccnc3Cl)cc12` [Example 55, 1-(1,3-benzodioxol-5-yl)-8-{[(2-chloropyridin-3-yl)carbonyl]amino}-1H-benzo[g]indazole-3-carboxamide], the pIC50 (Table 4, values given as bins) is no less than 6.00.

For the compound `CS(=O)(=O)c1ccc(-n2nc(C(N)=O)c3ccc4ccc(NC(=O)c5ccccc5C(F)(F)F)cc4c32)cc1` [Example 39, 1-[4-(methylsulfonyl)phenyl]-8-{[2-(trifluoromethyl)benzoyl]amino}-1H-benzo[g]indazole-3-carboxamide], where the note is “Table 2, values given as bins”, the pIC50 was 5.00 to 6.00.

On to `NC(=O)c1nn(-c2ccc3c(c2)OCO3)c2c1cc(Br)c1ccc(NC(=O)c3cccnc3Cl)cc12` [Example 57, 1-(1,3-benzodioxol-5-yl)-5-bromo-8-{[(2-chloropyridin-3-yl)carbonyl]amino}-1H-benzo[g]indazole-3-carboxamide], for which the pIC50 (Table 4, values given as bins) is no less than 6.00.

Turning to `NC(=O)c1nn(-c2ccc(F)cc2)c2c1ccc1ccc(NC(=O)c3cccnc3Cl)cc12` [Example 51, 8-{[(2-chloropyridin-3-yl)carbonyl]amino}-1-(4-fluorophenyl)-1H-benzo[g]indazole-3-carboxamide], the pIC50 (Table 3) was no less than 6.00.

For the compound `NC(=O)c1nn(-c2ccc(F)cc2)c2c1cc(-c1cccnc1)c1ccc(NC(=O)c3ccncc3Cl)cc12` [Example 45, 8-[(3-chloroisonicotinoyl(amino]-1-(4-fluorophenyl)-5-pyridin-3-yl-1H-benzo[g]indazole-3-carboxamidedihydrochloride], the pIC50 (Table 3) is 5.00 to 6.00.

Regarding `CS(=O)(=O)c1ccc(-n2nc(C(N)=O)c3ccc4ccc(NC(=O)c5ccccc5Cl)cc4c32)cc1` [Example 37, 8-[(2-chlorobenzoyl)amino]-1-[4-(methylsulfonyl)phenyl]-1H-benzo[g]indazole-3-carboxamide], the pIC50 (Table 2, values given as bins) is no less than 6.00.

With `NC(=O)c1nn(-c2ccc3c(c2)OCO3)c2c1ccc1ccc(N)cc12` [Example 56, 8-amino-1-(1,3-benzodioxol-5-yl)-1H-benzo[g]indazole-3-carboxamide], the pIC50 (Table 4, values given as bins) is 5.00 to 6.00.

Regarding `CS(=O)(=O)c1ccc(-n2nc(C(N)=O)c3ccc4ccc(NC(=O)c5cccc(Cl)c5Cl)cc4c32)cc1` [Example 40, 8-[(2,3-dichlorobenzoyl)amino]-1-[4-(methylsulfonyl)phenyl]-1H-benzo[g]indazole-3-carboxamide], the pIC50 (Table 2, values given as bins) is no less than 6.00.

Take `NC(=O)c1nn(-c2ccc(F)cc2)c2c1ccc1ccc(N)cc12` [Example 46, 8-amino-1-(4-fluorophenyl)-1H-benzo[g]indazole-3-carboxamide]: the pIC50 (Table 3) was 4.00 to 5.00.

For the compound `NC(=O)c1nn(-c2ccc(F)cc2)c2c1ccc1ccc(NC(=O)c3ccncc3Cl)cc12` [Example 43, 8-[(3-chloroisonicotinoyl)amino]-1-(4-fluorophenyl)-1H-benzo[g]indazole-3-carboxamide], the pIC50 (Table 3) was no less than 6.00.

`NC(=O)c1nn(-c2ccc3c(c2)OCO3)c2c1ccc1ccc(NC(=O)c3ccccc3Cl)cc12` [Example 54, 1-(1,3-benzodioxol-5-yl)-8-[(2-chlorobenzoyl)amino]-1H-benzo[g]indazole-3-carboxamide]: for the setting “Table 4, values given as bins”, the pIC50 is no less than 6.00.

`NC(=O)c1nn(-c2ccc(F)cc2)c2c1cc(Br)c1ccc(NC(=O)c3ccncc3Cl)cc12` [Example 44]: the pIC50 (Table 3) is no less than 6.00.

In the case of `NC(=O)c1nn(-c2ccc(F)cc2)c2c1ccc1ccc(NC(=O)c3ccccc3Cl)cc12` [Example 47, 8-[(2-chlorobenzoyl)amino]-1-(4-fluorophenyl)-1H-benzo[g]indazole-3-carboxamide], where the note is “Table 3”, the pIC50 is 5.00 to 6.00.
